# Measured values: patent publication US20080269337A1, “Method for the enhancing biocidal activity” (priority 2007, published 2008)
# Tests used:
# B. subtilus (ATCC23059) = assay: B. subtilus in synthetic medium, serial dilution and plating; format: cell-based
# Experimental: By definition a potentiator compound will not, by itself, kill or inhibit the bacterial population. The non-toxicity of bistridecylsulfosuccinate to B. subtilus is illustrated in Table 4. One ml of bacteria from an overnight culture was used to innocculate shake flasks containing 50 mls of fresh synthetic medium. The synthetic medium (as described previously) was augmented with increasing amounts of bistridecylsulfosuccinate. Serial dilution and plating was carried out to compare the efficacy of each treatment. The culture of B. subtilus was grown in the presence of 0, 5, 10, and 20 mg/l bistridecylsulfosuccinate (Btdss). Plating was carried out at 2.5 hours and 5 hours of incubation. […] The control had no treatment.
# B. cereus ATCC14579 = assay: B. cereus in synthetic medium, serial dilution and plating; format: cell-based; conditions: 20 mg/l bistridecylsulfosuccinate with 1 or 2 mg/l isothiazolinone
# From the text: The spore forming bacterium B. cereus is of particular concern because of its pathogenic properties. Most incidents of food poisoning attributed to the genus Bacillus are caused by B. cereus. B. cereus is a common concern in production of dairy products. There is particular concern about this organism in powered milk based products for infants. This is a concern not only to producers of these goods but also to the manufacturers of packaging and containers for such products. […] A culture of B. cereus ATCC14579 was treated with isothiazolinone alone and isothiazolinone with bistridecylsulfosuccinate One ml of bacteria from an overnight culture was used to innocculate shake flasks containing 50 mls of fresh synthetic medium. The synthetic medium (as described previously) was dosed with isothiazolinone at one or two mg/l concentration; or isothiazolinone in conjunction with 20 mg/l bistridecylsulfosuccinate. Cultures were maintained shaking at 37° C. then carried through serial dilution and plated at 3 and 5 hour time points.
# [1] = system: aqueous industrial systems; conditions: U.S. Pat. Nos. 5,607,597 and 5,736,056; cited from earlier work
Compound,"B. subtilus count in synthetic medium (B. subtilus (ATCC23059); 5 mg/l Btdss alone, 2.4 Hour)","B. subtilus count in synthetic medium (B. subtilus (ATCC23059); 5 mg/l Btdss alone, 5 Hour)","B. subtilus count in synthetic medium (B. subtilus (ATCC23059); 10 mg/l Btdss alone, 2.4 Hour)","B. subtilus count in synthetic medium (B. subtilus (ATCC23059); 10 mg/l Btdss alone, 5 Hour)","B. subtilus count in synthetic medium (B. subtilus (ATCC23059); 20 mg/l Btdss alone, 2.4 Hour)","B. subtilus count in synthetic medium (B. subtilus (ATCC23059); 20 mg/l Btdss alone, 5 Hour)","Growth of treated cultures relative to the untreated control (B. subtilus (ATCC23059); 5, 10, and 20 mg/l bistridecylsulfosuccinate alone)","Toxicity to B. subtilus (B. subtilus (ATCC23059); alone, at concentrations at least as high as 20 mg/l)",Effect on efficacy of isothiazolinone against B. cereus (B. cereus ATCC14579),Effect on efficacy of isothiazolinone [1]
bistridecylsulfosuccinate [Btdss],3.40 × 10^6,4.00 × 10^6,2.8 × 10^6,3.90 × 10^7,3.00 × 10^6,3.6 × 10^7,increased growth relative to the untreated control,non-toxic,greatly enhanced the efficacy of isothiazolinone,loss of efficacy
"CCCCC(CC)COC(=O)CC(C(=O)OCC(CC)CCCC)S(=O)(=O)O (stereo not drawn) [dioctyl, dioctylsulfosuccinate]",–,–,–,–,–,–,–,–,–,enhance the efficacy of isothiazolinone
dinonylsulfosuccinates,–,–,–,–,–,–,–,–,–,enhance the efficacy of isothiazolinone
